Marks after values point to notes of the source that are not given here.
How the values were obtained:
[1] = test system: liver HMG-CoA reductase mRNA; assay: Example 1: liver HMG-CoA reductase mRNA expression, real-time PCR; type: in vivo, Male Golden Syrian hamsters; conditions: relative expression in reference to a housekeeping gene, Example 1, 4 weeks
Description: Experiments were also conducted to determine the effect on the expression of genes associated with cholesterol in the liver and intestine. Total RNA was extracted and mRNA was converted to cDNA. The mRNA expression was measured by real-time PCR with four repeats and calculated as relative expression in reference to internal control of a housekeeping gene for each sample. Table 5 and FIG. 8a summarize the effect of BBRCI and PS alone or in combination on liver HMG-CoA reductase. […] HMG-CoA reductase is a rate-limiting enzyme in cholesterol biosynthesis. […] When a strong action occurs on cholesterol reduction through inhibiting cholesterol absorption, cholesterol biosynthesis is increased as compensatory response to the cholesterol loss due to the reduced absorption. The powerful synergistic action of BBRCI and PS on HMG-CoA reductase mRNA expression implies that the combination of these materials may act synergistically to reduce blood cholesterol, possibly by inhibiting cholesterol absorption.

[2] = test system: hamsters fed an atherogenic control diet; assay: Example 1: tissue weight relative to body weight and histopathological examination of organs; type: in vivo, Male Golden Syrian hamsters
Description: Histopathological testing and examination of gross and microscopic examination of thin sections of the various organs were conducted by a certified pathologist. There were no significant changes in the appearance or weight of brain, lung, heart, spleen and kidney. However, the livers of control animals were observably yellowish and heavier than those of animals treated with BBRCI or plant stanols, or the combination of either. Table 3 summarizes the effect of BBRCI and plant stanols on the percent tissue weight relative to body weight.

[3] = test system: hamsters fed a diet containing 0.25% cholesterol; assay: Example 2: tissue weight to body weight ratio; type: in vivo, male Golden Syrian hamsters; conditions: Example 2, 5 weeks; BBRCI 100 mg/kg·d and/or PS 1% (w/w); means±SD, n=12
Description: In this example, a controlled, five week animal study was performed. A total of 48 male Golden Syrian hamsters were randomized into 4 groups of 12 and fed isocaloric diets as follows. Hamster husbandry, living and feeding conditions were similar to that used for Example 1. • Control a semi-synthetic casein-corn starch-sucrose diet that contained 0.25% (w/w) cholesterol • BBRCI control diet containing 100 mg/kg·d of BBRCI • PS control diet containing 1% (w/w) PS • BBRCI+PS control diet containing 100 mg/kg·d BBRCI and 1% (w/w) PS Table 7 summarizes the effect on tissue weight to body weight ratio (values are means±SD). Data were analyzed by one-way ANOVA followed by Tukey test when a significant treatment effect was detected. A significant difference was indicated by a p<0.05. […] The combination of BBRCI and PS (BBRCI+PS), however, reduced the average liver weight in a strong, statistically significant, and synergistic manner compared to liver weights in the BBRCI and PS groups.

[4] = Example 1: weekly body weight and daily feed intake; type: in vivo, Male Golden Syrian hamsters; conditions: Example 1, weekly body weight over 4 weeks, FIG. 5
Description: Male Golden Syrian Hamsters were purchased from Charles River Co. housed individually in cages for two weeks prior to the commencement of the study. During this adjustment period, animals were fed with regular rodent chow diet with free access to both food and water. A total of 60 hamsters were weighed and randomly assigned to one of four groups of 15 animals each. Animals are subjected to a temperature-controlled environment with a 12:12 h light/dark cycle. Each group was fed with one of the four isocaloric experimental diets for a 4 week period. […] During the course of the experiment, animals were weighed weekly and food consumption was determined on a daily basis over the course of the experiment. During the course of the experiment, data were obtained with regard to food consumption and bodyweight so that the dose of BBRCI was maintained on a mg/kg basis as the animals grew over the 4 weeks experimental period. […] This may have important implications on weight control, healthy weight management strategies, and body composition (increase lean body mass) in humans and animals. […] Thereafter, significant differences in food intake was observed from days 22-25 but this effect disappeared during days 25-28 as a small surgical intervention was performed on each animal on day 25 on the neck area of the animal, which reduced food consumption in each treatment. […]

[5] = test system: hamsters fed an atherogenic control diet; assay: Example 1: liver cholesterol concentration (FIG. 4); type: in vivo, Male Golden Syrian hamsters; conditions: Example 1, 4 weeks, BBRCI 100 mg/kg·d and/or PS 1% (w/w)
Text: This observation, together with lower liver weight, implies that either BBRCI or PS or combination of either can be used to treat fatty liver.

[6] = test system: rats fed a diet containing 2% cholesterol and 28% fat; assay: Example 4: six week rat study, blood total cholesterol levels; type: in vivo, male Sprague-Dawley rats; conditions: 6 weeks; for T-C: 2% cholesterol 28% fat diet, means±SD, n=10
Description: In this example, a controlled, six week animal study was performed in a different animal model. Six randomized groups of 10 male Sprague-Dawley rats were fed isocaloric diets as follows. […] One objective of this example was to determine the effects of each intervention on plasma cholesterol levels in a different animal model. Table 9 summarizes the effect on blood total cholesterol levels (values are means±SD, n=10).

SMILES: COc1ccc2cc3[n+](cc2c1OC)CCc1cc2c(cc1-3)OCO2 [BBRCI, Berberine chloride]
- HMG-CoA reductase mRNA expression [1]: 0.98 ± 0.10^b
- Liver, percent tissue weight relative to body weight ([2]; Example 1, 4 weeks, BBRCI 100 mg/kg·d and/or PS 1% (w/w)): 4.4 ± 0.4^b percent
- appearance of fatty liver ([2]; Example 1, compared to the livers of the control animals): markedly reduced the appearance of fatty liver
- Heart, tissue weight to body weight ratio [3]: 0.37 ± 0.03
- Liver, tissue weight to body weight ratio [3]: 4.67 ± 0.38^ab
- Right kidney, tissue weight to body weight ratio [3]: 0.35 ± 0.03
- body weight [4]: trend toward reduced body weights after two weeks
- cholesterol concentration in the liver [5]: dramatically reduced cholesterol concentration in the liver
- T-C ([6]; BBRCI 100 mg/kg·d by gavage (BBRCl-1) and/or PS 1% (w/w) in diet): 102.1 ± 30.6 mg/dL
- T-C ([6]; BBRCI 200 mg/kg·d by gavage (BBRCl-2), alone or with PS 1% (w/w)): 109.1 ± 26.7 mg/dL
- T-C % difference from Control ([6]; BBRCI 100 mg/kg·d (BBRCl-1) and/or PS 1% (w/w)): −6.7%
- T-C % difference from Control ([6]; BBRCI 200 mg/kg·d (BBRCl-2), alone or with PS 1% (w/w)): −0.3%
